Inconclusive results and toxic doses are left out.
Tested on: L1210 leukemia ip in BDF1 mice, survival T/C
Experiment: NCI In Vivo Anticancer Drug Screen. Data for tumor model L1210 Leukemia (intraperitoneal) in B6D2F1 (BDF1) mice
Conditions: endpoint: mean survival time, higher = longer survival
Outline: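 Each compound was tested against a transplantable tumor grown in mice. The endpoint was survival, with treated animals benchmarked against vehicle controls as a simple ratio.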

[1] = dose: 100.0 mg/kg/injection, schedule: Q01DX009 (ip), vehicle: Klucel (hydroxypropylcellulose) (HPC)
[2] = dose: 200.0 mg/kg/injection, schedule: Q01DX009 (ip), vehicle: Klucel (hydroxypropylcellulose) (HPC)
[3] = dose: 100.0 mg/kg/injection, schedule: Q01DX001 (ip), vehicle: saline
[4] = dose: 200.0 mg/kg/injection, schedule: Q01DX001 (ip), vehicle: saline
[5] = dose: 400.0 mg/kg/injection, schedule: Q01DX001 (ip), vehicle: saline
[6] = dose: 50.0 mg/kg/injection, schedule: Q04DX003 (ip), vehicle: Klucel (hydroxypropylcellulose) (HPC)
[7] = dose: 100.0 mg/kg/injection, schedule: Q04DX003 (ip), vehicle: Klucel (hydroxypropylcellulose) (HPC)
[8] = dose: 200.0 mg/kg/injection, schedule: Q04DX003 (ip), vehicle: Klucel (hydroxypropylcellulose) (HPC)
[9] = dose: 400.0 mg/kg/injection, schedule: Q04DX003 (ip), vehicle: Klucel (hydroxypropylcellulose) (HPC)
[10] = dose: 12.5 mg/kg/injection, schedule: Q01DX009 (ip), vehicle: saline with Tween-80
[11] = dose: 25.0 mg/kg/injection, schedule: Q01DX009 (ip), vehicle: saline with Tween-80
[12] = dose: 100.0 mg/kg/injection, schedule: Q01DX009 (ip), vehicle: saline
[13] = dose: 200.0 mg/kg/injection, schedule: Q01DX009 (ip), vehicle: saline
[14] = dose: 400.0 mg/kg/injection, schedule: Q01DX009 (ip), vehicle: saline
[15] = dose: 50.0 mg/kg/injection, schedule: Q01DX009 (ip), vehicle: saline with Tween-80
[16] = dose: 200.0 mg/kg/injection, schedule: Q01DX009 (ip), vehicle: saline with Tween-80
[17] = dose: 50.0 mg/kg/injection, schedule: Q01DX009 (ip), vehicle: Klucel (hydroxypropylcellulose) (HPC)

## CCOC(=O)C(CO)NS(=O)(=O)c1ccc(C)cc1 (centres undefined)
dose: 75.0 mg/kg/injection, schedule: Q01DX001 (ip), vehicle: saline
  T/C: 103 % of control
dose: 75.0 mg/kg/injection, schedule: Q04DX003 (ip), vehicle: saline
  T/C: 102 % of control
dose: 150.0 mg/kg/injection, schedule: Q01DX001 (ip), vehicle: saline
  T/C: 106 % of control
dose: 150.0 mg/kg/injection, schedule: Q04DX003 (ip), vehicle: saline
  T/C: 103 % of control
dose: 300.0 mg/kg/injection, schedule: Q01DX001 (ip), vehicle: saline
  T/C: 103 % of control
dose: 300.0 mg/kg/injection, schedule: Q04DX003 (ip), vehicle: saline
  T/C: 97 % of control

## CCCNC(C)CC(=O)OCC (centres undefined)
dose: 100.0 mg/kg/injection, schedule: Q01DX Z (ip), vehicle: methylcellulose (MC)
  T/C: 96 % of control
dose: 200.0 mg/kg/injection, schedule: Q01DX Z (ip), vehicle: methylcellulose (MC)
  T/C: 94 % of control

## O=C(CNC(=O)c1cccc(C(=O)NCC(=O)Nc2ccc(C3=NCCN3)cc2)c1)Nc1ccc(C2=NCCN2)cc1
dose: 4.0 mg/kg/injection, schedule: Q01DX Z (ip), vehicle: water
  T/C: 107 % of control
dose: 6.0 mg/kg/injection, schedule: Q01DX Z (ip), vehicle: water
  T/C: 104 % of control
dose: 9.0 mg/kg/injection, schedule: Q01DX Z (ip), vehicle: water
  T/C: 113 % of control
dose: 12.0 mg/kg/injection, schedule: Q01DX Z (ip), vehicle: water
  T/C: 153 % of control

## COC(=O)C1CC=CC(C)C1C(=O)OC (centres undefined)
[1]
  T/C: 105 % of control
[2]
  T/C: 103 % of control
dose: 400.0 mg/kg/injection, schedule: Q01DX009 (ip), vehicle: Klucel (hydroxypropylcellulose) (HPC)
  T/C: 100 % of control

## Cc1ccccc1/C=N/Nc1nnc(N/N=C/c2ccccc2C)c2ccccc12
dose: 100.0 mg/kg/injection, schedule: Q01DX001 (ip), vehicle: carboxymethylcellulose (CMC)
  T/C: 91 % of control
dose: 200.0 mg/kg/injection, schedule: Q01DX001 (ip), vehicle: carboxymethylcellulose (CMC)
  T/C: 109 % of control
dose: 400.0 mg/kg/injection, schedule: Q01DX001 (ip), vehicle: carboxymethylcellulose (CMC)
  T/C: 95 % of control

## COc1ccc(CCC(C)=O)cc1OC
[1]
  T/C: 97 % of control
[2]
  T/C: 93 % of control

## COc1ccccc1C1OC1C(=O)O (centres undefined)
[3]
  T/C: 102 % of control
[4]
  T/C: 94 % of control
[5]
  T/C: 103 % of control

## Cc1c(C)c2c(Cl)c3ccccc3nc2c2ccccc12
[6]
  T/C: 102 % of control
[7]
  T/C: 100 % of control
[8]
  T/C: 112 % of control
[9]
  T/C: 100 % of control

## NC(=O)CCCCCCCC(N)=O
[7]
  T/C: 89 % of control
[8]
  T/C: 89 % of control
[9]
  T/C: 94 % of control

## CC1(C)N=C(N)N=C(N)N1c1ccc(CCCCc2cccc(S(=O)(=O)F)c2)c(Cl)c1
dose: 6.25 mg/kg/injection, schedule: Q01DX009 (ip), vehicle: saline with Tween-80
  T/C: 106 % of control
[10]
  T/C: 104 % of control
[11]
  T/C: 113 % of control

## CN1OC(C#N)(C#N)C(C#N)(C#N)C1c1ccccc1 (centres undefined)
[12]
  T/C: 103 % of control
dose: 100.0 mg/kg/injection, schedule: Q04DX003 (ip), vehicle: saline
  T/C: 101 % of control
[13]
  T/C: 106 % of control
dose: 200.0 mg/kg/injection, schedule: Q04DX003 (ip), vehicle: saline
  T/C: 89 % of control
[14]
  T/C: 101 % of control
dose: 400.0 mg/kg/injection, schedule: Q04DX003 (ip), vehicle: saline
  T/C: 109 % of control

## CC1(C)C(=O)C2C=CCC21 (centres undefined)
[15]
  T/C: 91 % of control
dose: 100.0 mg/kg/injection, schedule: Q01DX009 (ip), vehicle: saline with Tween-80
  T/C: 98 % of control
[16]
  T/C: 95 % of control

## OCCSc1ccccc1
dose: 100.0 mg/kg/injection, schedule: Q04DX003 (ip), vehicle: other
  T/C: 97 % of control
dose: 200.0 mg/kg/injection, schedule: Q04DX003 (ip), vehicle: other
  T/C: 103 % of control
dose: 400.0 mg/kg/injection, schedule: Q04DX003 (ip), vehicle: other
  T/C: 93 % of control

## CN=C(c1ccc(NC(=O)c2cc(N)cc(C(=O)Nc3ccc(C(=NC)N(C)C)cc3)c2)cc1)N(C)C
dose: 0.9 mg/kg/injection, schedule: Q01DX Z (ip), vehicle: carboxymethylcellulose (CMC)
  T/C: 94 % of control
dose: 1.87 mg/kg/injection, schedule: Q01DX Z (ip), vehicle: carboxymethylcellulose (CMC)
  T/C: 97 % of control
dose: 3.75 mg/kg/injection, schedule: Q01DX Z (ip), vehicle: carboxymethylcellulose (CMC)
  T/C: 91 % of control
dose: 7.5 mg/kg/injection, schedule: Q01DX Z (ip), vehicle: carboxymethylcellulose (CMC)
  T/C: 100 % of control
dose: 15.0 mg/kg/injection, schedule: Q01DX Z (ip), vehicle: carboxymethylcellulose (CMC)
  T/C: 100 % of control
dose: 30.0 mg/kg/injection, schedule: Q01DX Z (ip), vehicle: carboxymethylcellulose (CMC)
  T/C: 91 % of control

## CC(=O)Nc1ccc2c(c1)-c1ccccc1C2=O
dose: 100.0 mg/kg/injection, schedule: Q04DX003 (ip), vehicle: saline with Tween-80
  T/C: 98 % of control
dose: 200.0 mg/kg/injection, schedule: Q04DX003 (ip), vehicle: saline with Tween-80
  T/C: 100 % of control
dose: 400.0 mg/kg/injection, schedule: Q04DX003 (ip), vehicle: saline with Tween-80
  T/C: 98 % of control

## CCNC(=O)C(=O)c1ccccc1NC(C)=O
[7]
  T/C: 99 % of control
[8]
  T/C: 100 % of control
[9]
  T/C: 96 % of control

## O=C(O)/C=C\c1ccccc1
dose: 100.0 mg/kg/injection, schedule: Q01DX009 (ip), vehicle: other
  T/C: 100 % of control
dose: 200.0 mg/kg/injection, schedule: Q01DX009 (ip), vehicle: other
  T/C: 95 % of control

## Cc1ccc2ncccc2c1N (tested in a mixture with another compound)
dose: 100.0 mg/kg/injection, schedule: Q04DX003 (ip), vehicle: gum acacia
  T/C: 93 % of control
dose: 200.0 mg/kg/injection, schedule: Q04DX003 (ip), vehicle: gum acacia
  T/C: 98 % of control
dose: 400.0 mg/kg/injection, schedule: Q04DX003 (ip), vehicle: gum acacia
  T/C: 94 % of control

## C/C=C/C(=O)OC
[12]
  T/C: 101 % of control
[13]
  T/C: 102 % of control
[14]
  T/C: 104 % of control

## Nc1cnccc1NCCc1cccc(O)c1
[10]
  T/C: 97 % of control
[11]
  T/C: 103 % of control
[15]
  T/C: 89 % of control
[16]
  T/C: 88 % of control

## CCCCC[C@H](CN(C)C)[C@H](O)/C=C/c1ccc(Cl)cc1
dose: 12.5 mg/kg/injection, schedule: Q04DX002 (ip), vehicle: saline
  T/C: 113 % of control
dose: 25.0 mg/kg/injection, schedule: Q04DX002 (ip), vehicle: saline
  T/C: 110 % of control
dose: 50.0 mg/kg/injection, schedule: Q04DX002 (ip), vehicle: saline
  T/C: 102 % of control

## CN(N)C(=O)Nc1ccccc1
dose: 75.0 mg/kg/injection, schedule: Q01DX001 (ip), vehicle: carboxymethylcellulose (CMC)
  T/C: 100 % of control
dose: 150.0 mg/kg/injection, schedule: Q01DX001 (ip), vehicle: carboxymethylcellulose (CMC)
  T/C: 100 % of control

## CCOC(=O)CNc1cc(C)ccc1C
dose: 100.0 mg/kg/injection, schedule: Q04DX002 (ip), vehicle: Klucel (hydroxypropylcellulose) (HPC)
  T/C: 95 % of control
dose: 200.0 mg/kg/injection, schedule: Q04DX002 (ip), vehicle: Klucel (hydroxypropylcellulose) (HPC)
  T/C: 98 % of control
dose: 400.0 mg/kg/injection, schedule: Q04DX002 (ip), vehicle: Klucel (hydroxypropylcellulose) (HPC)
  T/C: 95 % of control

## CCOC(=O)Nc1ccc(OC(=O)Oc2ccc(NC(=O)OCC)cc2)cc1
[3]
  T/C: 97 % of control
[4]
  T/C: 97 % of control
[5]
  T/C: 86 % of control

## O=C(O)c1ccccc1C(=O)Nc1cc(Cl)ccc1Cl
[17]
  T/C: 94 % of control
[1]
  T/C: 98 % of control
[7]
  T/C: 98 % of control
[2]
  T/C: 93 % of control
[8]
  T/C: 89 % of control

## NC(CCCCN=Cc1ccccc1O)C(=O)O (centres undefined)
[3]
  T/C: 95 % of control
[4]
  T/C: 92 % of control
[5]
  T/C: 91 % of control

## ClC(Cl)=C1C(Cl)=C(Cl)C(Cl)=C1Cl
[17]
  T/C: 97 % of control
[6]
  T/C: 96 % of control
[1]
  T/C: 100 % of control
[7]
  T/C: 96 % of control
[2]
  T/C: 94 % of control
[8]
  T/C: 93 % of control
